# What was measured:
# Type in all cases: cell-based, Escherichia coli
# dnaQ49 strain = test: Drug resistance reached by repeated mutagenesis and selection (Example 2)
# dnaQ = tested on: dnaQ
# [1] = tested on: Super-Oflo.-resisting dnaQ; test: Minimum growth inhibiting concentration (MIC) of antibiotic substances
# Wild-Type = tested on: Wild-Type
smiles,measurement,setting,value
CC1COc2c(N3CCN(C)CC3)c(F)cc3c(=O)c(C(=O)O)cn1c23 (centres unmarked) [Ofloxacin],Concentration of Ofloxacin,dnaQ49 strain; mutagenesis treatment for 1 time,0.001 µg/mL
same,Concentration of Ofloxacin,dnaQ49 strain; mutagenesis treatments for 2 times,0.01 µg/mL
same,Concentration of Ofloxacin,dnaQ49 strain; mutagenesis treatments for 3 times,0.1 µg/mL
same,Concentration of Ofloxacin,dnaQ49 strain; mutagenesis treatments for 4 times,1 µg/mL
same,Concentration of Ofloxacin,dnaQ49 strain; mutagenesis treatments for 5 times,10 µg/mL
same,Concentration of Ofloxacin,dnaQ49 strain; mutagenesis treatments for 6 times,30 µg/mL
same,Concentration of Ofloxacin,dnaQ49 strain; mutagenesis treatments for 7 times,50 µg/mL
same,Concentration of Ofloxacin,dnaQ49 strain; mutagenesis treatments for 8 times,60 µg/mL
same,Concentration of Ofloxacin,dnaQ49 strain; mutagenesis treatments for 9 times,70 µg/mL
same,Concentration of Ofloxacin,dnaQ49 strain; mutagenesis treatments for 10 times,80 µg/mL
same,Concentration of Ofloxacin,dnaQ49 strain; mutagenesis treatments for 11 times,90 µg/mL
same,Concentration of Ofloxacin,dnaQ49 strain; mutagenesis treatments for 12 times,100 µg/mL
same,Concentration of Ofloxacin,dnaQ49 strain; mutagenesis treatments for 13 times,120 µg/mL
same,Concentration of Ofloxacin,dnaQ49 strain; mutagenesis treatments for 14 times,132 µg/mL
same,Concentration of Ofloxacin,dnaQ49 strain; mutagenesis treatments for 15 times,144 µg/mL
same,Concentration of Ofloxacin,dnaQ49 strain; mutagenesis treatments for 16 times,150 µg/mL
same,Concentration of Ofloxacin,dnaQ49 strain; mutagenesis treatments for 17 times,156 µg/mL
same,Concentration of Ofloxacin,dnaQ49 strain; mutagenesis treatments for 18 times,168 µg/mL
same,Concentration of Ofloxacin,dnaQ49 strain; mutagenesis treatments for 19 times,180 µg/mL
same,Concentration of Ofloxacin,dnaQ49 strain; mutagenesis treatments for 20 times,210 µg/mL
same,Concentration of Ofloxacin,dnaQ49 strain; mutagenesis treatments for 21 times,240 µg/mL
same,Concentration of Ofloxacin,dnaQ49 strain; mutagenesis treatments for 22 times,270 µg/mL
same,Concentration of Ofloxacin,dnaQ49 strain; mutagenesis treatments for 23 times,300 µg/mL
same,Concentration of Ofloxacin,dnaQ49 strain; mutagenesis treatments for 24 times,320 µg/mL
same,Concentration of Ofloxacin,dnaQ49 strain; mutagenesis treatments for 25 times,330 µg/mL
same,Concentration of Ofloxacin,dnaQ49 strain; mutagenesis treatments for 26 times,340 µg/mL
same,Concentration of Ofloxacin,dnaQ49 strain; mutagenesis treatments for 27 times,350 µg/mL
same,Concentration of Ofloxacin,dnaQ49 strain; mutagenesis treatments for 28 times,360 µg/mL
same,Concentration of Ofloxacin,dnaQ49 strain; mutagenesis treatments for 29 times,370 µg/mL
same,Concentration of Ofloxacin,dnaQ49 strain; mutagenesis treatments for 30 times,380 µg/mL
same,Concentration of Ofloxacin,dnaQ49 strain; mutagenesis treatments for 31 times,400 µg/mL
same,Concentration of Ofloxacin,dnaQ49 strain; mutagenesis treatments for 32 times,425 µg/mL
same,Concentration of Ofloxacin,dnaQ49 strain; mutagenesis treatments for 33 times,450 µg/mL
same,Concentration of Ofloxacin,dnaQ49 strain; mutagenesis treatments for 34 times,475 µg/mL
same,Concentration of Ofloxacin,dnaQ49 strain; mutagenesis treatments for 35 times,500 µg/mL
same,Minimum growth inhibiting concentration (MIC),dnaQ,0.0156
same,Minimum growth inhibiting concentration (MIC),[1],1024
same,Minimum growth inhibiting concentration (MIC),Wild-Type,0.0625

# From US6949383B2 (priority 1998, dated 2005)
